{"source": "patent US12703836B2", "about": "“Mixture of compounds with high molecular weights, obtained from sugar cane wax (Saccharum officinarum L.)” (CENTRO NACIONAL DE INVESTIGACIONES CIENTÍFICAS, priority 2021, dated 2026)", "key": {"[1]": {"test_system": "rabbits with spinal cord damage induced by Ischemia/Reperfusion (I/R)", "experiment": "Neurological deficit score in spinal cord ischemia/reperfusion (abdominal aorta occlusion)", "assay_type": "in vivo, New Zealand rabbits", "details": "lower = better", "procedure": "The neuroprotective effect of the HMWS mixture, object of the present invention, was also investigated using an experimental model of induction of ischemia in the spinal cord. […] Furthermore, the effect of HMWS was compared with that of pure extract of free fatty acids (AcGL) administered at equal doses.\nMale New Zealand rabbits (1.8-2.2 kg) were used, which were adapted for 15 days to laboratory conditions (temperature of 20 to 25° C., relative humidity of 60±5%, light/dark cycles of 12 hours), with free access to water and food.\nThe substances HMWS, AcGS, AlcG, AldG, AcGL and aspirin were prepared as suspensions in an acacia/water vehicle (1%). Once the quarantine was completed, the rabbits were distributed into 8 groups: a negative control that only received vehicle and was not induced ischemia and 7 groups with spinal cord ischemia: a positive control treated only with the vehicle, and 6 groups were treated with HMWS (200 mg/kg), AcGS (132 mg/kg), AlcG (40 mg/kg), AldG (28 mg/kg), AcGL (200 mg/kg), and aspirin (2 mg/kg) as reference substance. […]\nFor the induction of ischemia in the spinal cord, the rabbits were anesthetized with thiopental (20 mg/kg i.v.). […] At 4 and 24 hours of reperfusion, the neurological deficit of the animals was blindly evaluated by 2 independent observers (according to Zivin et al., 1982). […]"}, "[2]": {"test_system": "Mongolian gerbils with global brain Ischemia/Reperfusion (I/R)", "experiment": "Clinical symptom (neurological function) score after global cerebral ischemia by bilateral carotid occlusion/reperfusion", "assay_type": "in vivo", "details": "4 hours after I/R", "description": "(§1) For the evaluation of the neuroprotective effect of the mixture of high molecular weight substances, the object of the present invention, an experimental model of global cerebral ischemia by occlusion and reperfusion of the carotid arteries was used. The composition of High Molecular Weight Substances (HMWS) obtained in example 1 was subjected to a preclinical test with animals, in which its pharmacological effect was compared with the effects of pure extracts of Fatty Acids in the form of Salts (AcGS), fatty alcohols (AlcG) and high molecular weight aldehydes (AldG), which were administered in the dose equivalent to the proportion in which each one is present in 200 mg/kg of the HMWS Active Ingredient. Furthermore, the effect of HMWS was compared with the effect of pure free fatty acid (AcGL) extract administered at equal doses. […] Once the quarantine was over, the gerbils were distributed into 8 groups: a negative control that only received vehicle and cerebral ischemia (CI) was not induced and 7 groups with induced CI. […] All treatments were administered orally through intragastric intubation (0.5 mL/70 g body weight) 1 hour prior to induction of ischemia. […] For 6 minutes, the number of times the gerbils crossed the different quadrants with their front legs and the number of times they stopped or leaned was quantified."}, "[3]": {"test_system": "Mongolian gerbils with global brain Ischemia/Reperfusion (I/R)", "experiment": "Locomotor activity (open field) after global cerebral ischemia/reperfusion", "assay_type": "in vivo", "details": "24 hours post-ischemia, oral HMWS 200, AcGS 132, AlcG 40, AldG 28, AcGL 200, ASA 60 mg/kg", "description": "as §1"}, "[4]": {"test_system": "plasma concentrations of MDA", "experiment": "Plasma lipid peroxidation (SRATB, MDA) after cerebral ischemia/reperfusion", "assay_type": "in vivo, Mongolian gerbils", "details": "gerbils, plasma after I/R; oral HMWS 200, AcGS 132, AlcG 40, AldG 28, AcGL 200, ASA 60 mg/kg", "description": "For the evaluation of the neuroprotective effect of the mixture of high molecular weight substances, the object of the present invention, an experimental model of global cerebral ischemia by occlusion and reperfusion of the carotid arteries was used. The composition of High Molecular Weight Substances (HMWS) obtained in example 1 was subjected to a preclinical test with animals, in which its pharmacological effect was compared with the effects of pure extracts of Fatty Acids in the form of Salts (AcGS), fatty alcohols (AlcG) and high molecular weight aldehydes (AldG), which were administered in the dose equivalent to the proportion in which each one is present in 200 mg/kg of the HMWS Active Ingredient. Furthermore, the effect of HMWS was compared with the effect of pure free fatty acid (AcGL) extract administered at equal doses. Once the quarantine was over, the gerbils were distributed into 8 groups: a negative control that only received vehicle and cerebral ischemia (CI) was not induced and 7 groups with induced CI. […] All treatments were administered orally through intragastric intubation (0.5 mL/70 g body weight) 1 hour prior to induction of ischemia. […] To determine lipid peroxidation, the formation of substances reactive to thiobarbituric acid (SRATB) was quantified (according to Ohkawa et al., 1979) in plasma, and was expressed as nmol malondialdehyde (MDA)/mg of protein."}}}
{"smiles": "CC(=O)Oc1ccccc1C(=O)O", "note": "[ASA, aspirin]", "values": [{"measurement": "Score (neurological deficit) 4 h", "setting": "[1]; 4 h of reperfusion, oral for 10 days: HMWS (example 2) 200, AcGS 132, AlcG 40, AldG 28, AcGL 200, ASA 2 mg/kg, positive control 0.30 ± 0.17, negative 2 ± 0", "value": "0.90 ± 0.25"}, {"measurement": "Score (neurological deficit) 24 h", "setting": "[1]; 24 h of reperfusion, oral for 10 days: HMWS 200, AcGS 132, AlcG 40, AldG 28, AcGL 200, ASA 2 mg/kg, positive control 0.15 ± 0.1, negative 2 ± 0", "value": "0.50 ± 0.24"}, {"measurement": "Inhibition (%) of clinical symptom score", "setting": "[2]; oral HMWS 200, AcGS 132, AlcG 40, AldG 28, AcGL 200, ASA 60 mg/kg, vs positive control", "value": 86.6, "unit": "%"}, {"measurement": "SC score (clinical symptoms, McGraw scale 0-5)", "setting": "[2]; single oral dose 1 hour before ischemia: HMWS (example 1) 200, AcGS 132, AlcG 40, AldG 28, AcGL 200, ASA 60 mg/kg, mean ± SEM, positive control 3.00 ± 0.52", "value": "0.40 ± 0.35"}, {"measurement": "Crosses (#), open field locomotor activity", "setting": "[3]; 6 minutes, mean ± SEM, positive control 355.5 ± 12.4, negative 250.8 ± 14.8", "value": "286.2 ± 15.2 #"}, {"measurement": "Inhibition (%) of hyperlocomotion (crosses)", "setting": "[3]", "value": 66.2, "unit": "%"}, {"measurement": "Inhibition (%) of MDA increase", "setting": "[4]", "value": 0.0, "unit": "%"}]}
